Test results taken from the NIST ThermoML archive (doi:10.1021/je040002p).
Numbers after ± are expanded uncertainties.

Columns and labels:
[1] = Liquid; for mass density: 101.33 kPa, Pycnometric method
[2] = refractive index (Na D-line) (dimensionless); settings: 101.33 kPa, Liquid, Standard Abbe refractometry

| SMILES | mass density ([1]; 293.15 K) | Normal boiling temperature [1] | refractive index ([2]; 293.15 K) | mass density ([1]; 303.15 K) | refractive index ([2]; 303.15 K) |
| --- | --- | --- | --- | --- | --- |
| CCCCC(C)=O [2-hexanone] | 811.2 ± 0.8 kg/m3 | 127.54 ± 0.13 °C | 1.4008 ± 0.0007 |  |  |
| OC1CCCCC1 [cyclohexanol] |  | 160.74 ± 0.14 °C |  | 941.6 ± 0.9 kg/m3 | 1.4621 ± 0.0007 |
| CCCCCCCCC [nonane] | 717.6 ± 0.7 kg/m3 | 150.82 ± 0.14 °C | 1.4055 ± 0.0007 |  |  |
